The text below walks through data of US8476265B2, “Compounds-801” (AstraZeneca AB, priority 2010, dated 2013).

One experiment has as its target T1, Adrenergic β2 (Homo sapiens, UniProt P07550).
T1 construct: Adherent H292 cells are removed from tissue culture flasks by treatment with Accutase™ cell detachment solution; endogenous in cells; host or cells: H292 cells
Kind of experiment: Adrenergic β2 mediated cAMP production in H292 cells (AlphaScreen), concentration response. The format is cell-based. Conditions: for EC50: 60 min, 300 μM rolipram, read-out: β2 pEC50 (converted); for β2 Intrinsic Activity: fraction relative to the maximum activity determined for formoterol. The essentials:
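Intracellular cAMP in lysates read by AlphaScreen, calibrated with cAMP standards; curves fitted for pEC50, with intrinsic activity as a fraction of formoterol's maximum. Agonist exposure 60 min at room temperature after 10 min rolipram (300 μM final), 1% DMSO, HEPES-buffered HBSS pH 7.4.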

Experiment [1] has as its target T2, human muscarinic acetylcholine M3 receptor (Homo sapiens, UniProt P20309).
T2 construct: expressed in transfected cells; host or cells: CHO-K1 (Chinese Hamster Ovary) cell membranes
Kind of experiment: Muscarinic 3 receptor binding assay ([3H]NMS competition, SPA), pIC50. Conditions: [3H]NMS 0.1 nM, CHO-K1 cell membranes expressing human M3 receptor. The essentials: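 SPA beads precoated with human M3-expressing CHO-K1 membranes were incubated 16 h at room temperature with serially diluted compound and 0.1 nM [3H]NMS (pH 7.4 HEPES buffer, MgCl2, BSA, 1% DMSO). Atropine (1 μM) defined non-specific binding; pIC50 is the 50% reduction in specific binding.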

Where a name gives a salt, the structure may show the parent alone.

T2 sequence (P20309 whole entry): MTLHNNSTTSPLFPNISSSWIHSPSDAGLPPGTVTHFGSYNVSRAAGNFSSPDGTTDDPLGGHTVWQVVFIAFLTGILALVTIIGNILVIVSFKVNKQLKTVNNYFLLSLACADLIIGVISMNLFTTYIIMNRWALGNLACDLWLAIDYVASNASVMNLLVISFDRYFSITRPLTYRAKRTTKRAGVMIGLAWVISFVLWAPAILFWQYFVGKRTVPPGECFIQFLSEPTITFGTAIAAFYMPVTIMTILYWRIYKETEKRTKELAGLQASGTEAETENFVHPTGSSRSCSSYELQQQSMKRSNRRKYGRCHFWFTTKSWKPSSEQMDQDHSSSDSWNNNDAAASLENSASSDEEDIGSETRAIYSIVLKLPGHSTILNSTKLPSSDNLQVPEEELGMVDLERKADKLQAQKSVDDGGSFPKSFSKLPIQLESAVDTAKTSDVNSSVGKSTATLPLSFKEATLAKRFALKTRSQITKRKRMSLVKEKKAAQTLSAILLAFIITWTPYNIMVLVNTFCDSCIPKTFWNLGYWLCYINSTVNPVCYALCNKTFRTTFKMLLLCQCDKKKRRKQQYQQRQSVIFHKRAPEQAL
T1 sequence (P07550 whole entry): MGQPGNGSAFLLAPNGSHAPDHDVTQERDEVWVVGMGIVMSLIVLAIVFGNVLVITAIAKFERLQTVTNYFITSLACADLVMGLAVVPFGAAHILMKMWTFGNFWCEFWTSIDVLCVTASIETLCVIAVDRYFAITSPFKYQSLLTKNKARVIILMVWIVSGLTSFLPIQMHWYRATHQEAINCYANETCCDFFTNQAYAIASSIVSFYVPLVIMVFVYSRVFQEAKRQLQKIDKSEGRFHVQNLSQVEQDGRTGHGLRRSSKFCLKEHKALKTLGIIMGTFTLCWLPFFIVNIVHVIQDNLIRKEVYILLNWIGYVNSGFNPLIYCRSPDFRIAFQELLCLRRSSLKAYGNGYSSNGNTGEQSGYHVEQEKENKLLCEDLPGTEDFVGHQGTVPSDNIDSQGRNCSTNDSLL

Take `CCCCN(CCNCCc1ccc(O)c2c1OCC(=O)N2)C(=O)CCOCCc1cccc(CCN2CCC3(CC2)CN(C(=O)c2csc(C(C)C)n2)CCO3)c1` [Example 34, N-Butyl-N-(2-(2-(5-hydroxy-3-oxo-3,4-dihydro-2H-benzo[b][1,4]oxazin-8-yl)ethylamino)ethyl)-3-(3-(2-(4-(2-isopropylthiazole-4-carbonyl)-1-oxa-4,9-diazaspiro[5.5]undecan-9-yl)ethyl)phenethoxy)propanamide ditrifluoroacetate]: on Adrenergic β2, the EC50 is 10 nM and the “β2 Intrinsic Activity” value came out at 1.0. For the same molecule, the half-maximal inhibitory concentration (IC50) – broadly, the concentration that gives 50% inhibition – in experiment [1] was 1 nM.

With `CCCCN(CCNCCc1ccc(O)c2c1OCC(=O)N2)C(=O)CCOCCc1cccc(CCN2CCC3(CC2)CN(C(=O)c2csc(C(C)C)n2)CCO3)c1` [Example 34a, N-Butyl-N-(2-(2-(5-hydroxy-3-oxo-3,4-dihydro-2H-benzo[b][1,4]oxazin-8-yl)ethylamino)ethyl)-3-(3-(2-(4-(2-isopropylthiazole-4-carbonyl)-1-oxa-4,9-diazaspiro[5.5]undecan-9-yl)ethyl)phenethoxy)propanamide Sulphate salt Modification A], the EC50 on Adrenergic β2 was 15.8 nM. For the same molecule, the IC50 in experiment [1] is 0.631 nM.

Consider `CCN(CCNCCc1ccc(O)c2[nH]c(=O)sc12)C(=O)CCOCCc1cccc(CCN2CCC3(CC2)CN(C(=O)c2csc(C(C)C)n2)CCO3)c1` [Example 35, N-Ethyl-N-(2-(2-(4-hydroxy-2-oxo-2,3-dihydrobenzo[d]thiazol-7-yl)ethylamino)ethyl)-3-(3-(2-(4-(2-isopropylthiazole-4-carbonyl)-1-oxa-4,9-diazaspiro[5.5]undecan-9-yl)ethyl)phenethoxy)propanamide ditrifluoroacetate], for which, on Adrenergic β2, the EC50 is 3.16 nM and the “β2 Intrinsic Activity” value was 1.0. The molecule also gave an IC50 in experiment [1] of 3.98 nM.

As for `CC(C)c1nc(C(=O)N2CCOC3(CCN(CCc4cccc(CCOCCC(=O)N(CCNCCc5ccc(O)c6c5OCC(=O)N6)C5CCCCC5)c4)CC3)C2)cs1` [Example 36, N-Cyclohexyl-N-(2-(2-(5-hydroxy-3-oxo-3,4-dihydro-2H-benzo[b][1,4]oxazin-8-yl)ethylamino)ethyl)-3-(3-(2-(4-(2-isopropylthiazole-4-carbonyl)-1-oxa-4,9-diazaspiro[5.5]undecan-9-yl)ethyl)phenethoxy)propanamide ditrifluoroacetate], at Adrenergic β2, the EC50 was 12.6 nM and the “β2 Intrinsic Activity” value was determined as 1.0. Further, the IC50 in experiment [1] is 2.51 nM.

On to `CC[C@@H](C)N(CCNCCc1ccc(O)c2c1OCC(=O)N2)C(=O)CCOCCc1cccc(CCN2CCC3(CC2)CN(C(=O)c2csc(C(C)C)n2)CCO3)c1` [Example 37, (R)—N-sec-Butyl-N-(2-(2-(5-hydroxy-3-oxo-3,4-dihydro-2H-benzo[b][1,4]oxazin-8-yl)ethylamino)ethyl)-3-(3-(2-(4-(2-isopropylthiazole-4-carbonyl)-1-oxa-4,9-diazaspiro[5.5]undecan-9-yl)ethyl)phenethoxy)propanamide ditrifluoroacetate], for which, on Adrenergic β2, the EC50 was 10 nM and the “β2 Intrinsic Activity” value was 0.9. In experiment [1], this molecule showed an IC50 of 0.794 nM.

Take `CCCC[C@@H](C)N(CCNCCc1ccc(O)c2c1OCC(=O)N2)C(=O)CCOCCc1cccc(CCN2CCC3(CC2)CN(C(=O)c2csc(C)n2)CCO3)c1` [Example 38, (R)—N-(Hexan-2-yl)-N-(2-(2-(5-hydroxy-3-oxo-3,4-dihydro-2H-benzo[b][1,4]oxazin-8-yl)ethylamino)ethyl)-3-(3-(2-(4-(2-methylthiazole-4-carbonyl)-1-oxa-4,9-diazaspiro[5.5]undecan-9-yl)ethyl)phenethoxy)propanamide ditrifluoroacetate]: on Adrenergic β2, the EC50 is 15.8 nM and the “β2 Intrinsic Activity” value came out at 1.0. For the same molecule, the IC50 in experiment [1] is 0.398 nM.

Regarding `CC(C)c1nc(C(=O)N2CCOC3(CCN(CCc4cccc(CCOCCC(=O)N(CCNCCc5ccc(O)c6c5OCC(=O)N6)C5CCCC5)c4)CC3)C2)cs1` [Example 39, N-Cyclopentyl-N-(2-(2-(5-hydroxy-3-oxo-3,4-dihydro-2H-benzo[b][1,4]oxazin-8-yl)ethylamino)ethyl)-3-(3-(2-(4-(2-isopropylthiazole-4-carbonyl)-1-oxa-4,9-diazaspiro[5.5]undecan-9-yl)ethyl)phenethoxy)propanamide ditrifluoroacetate], at Adrenergic β2, the EC50 was 10 nM and the “β2 Intrinsic Activity” value amounted to 1.0. Also, the IC50 in experiment [1] is 1 nM.

With `CC(C)CN(CCNCCc1ccc(O)c2c1OCC(=O)N2)C(=O)CCOCCc1cccc(CCN2CCC3(CC2)CN(C(=O)c2csc(C(C)C)n2)CCO3)c1` [Example 40, N-(2-(2-(5-Hydroxy-3-oxo-3,4-dihydro-2H-benzo[b][1,4]oxazin-8-yl)ethylamino)ethyl)-N-Isobutyl-3-(3-(2-(4-(2-isopropylthiazole-4-carbonyl)-1-oxa-4,9-diazaspiro[5.5]undecan-9-yl)ethyl)phenethoxy)propanamide ditrifluoroacetate], on Adrenergic β2, the EC50 was 20 nM and the “β2 Intrinsic Activity” value is listed as 1.0. The molecule also gave an IC50 in experiment [1] of 1.26 nM.

As to `CC(C)c1nc(C(=O)N2CCOC3(CCN(CCc4cccc(CCOCCC(=O)N(CCNCCc5ccc(O)c6c5OCC(=O)N6)Cc5ccccc5)c4)CC3)C2)cs1` [Example 41, N-Benzyl-N-(2-(2-(5-hydroxy-3-oxo-3,4-dihydro-2H-benzo[b][1,4]oxazin-8-yl)ethylamino)ethyl)-3-(3-(2-(4-(2-isopropylthiazole-4-carbonyl)-1-oxa-4,9-diazaspiro[5.5]undecan-9-yl)ethyl)phenethoxy)propanamide ditrifluoroacetate], on Adrenergic β2, the EC50 was 20 nM and the “β2 Intrinsic Activity” value was found to be 0.9. In experiment [1], this molecule had an IC50 of 0.794 nM.

For `Cc1nc(C(=O)N2CCOC3(CCN(Cc4cccc(CCOCCC(=O)N(CCNCCc5ccc(O)c6[nH]c(=O)ccc56)C5CCCCC5)c4)CC3)C2)cs1` [Example 42, N-Cyclohexyl-N-(2-(2-(8-hydroxy-2-oxo-1,2-dihydroquinolin-5-yl)ethylamino)ethyl)-3-(3-((4-(2-methylthiazole-4-carbonyl)-1-oxa-4,9-diazaspiro[5.5]undecan-9-yl)methyl)phenethoxy)propanamide ditrifluoroacetate], at Adrenergic β2, the EC50 was 398 nM and the “β2 Intrinsic Activity” value worked out at 1.0. The molecule also showed an IC50 in experiment [1] of less than 0.0316 nM.

Turning to `CCN(CCNCCc1ccc(O)c2[nH]c(=O)sc12)C(=O)CCOCCc1cc(CN2CCC3(CC2)CN(C(=O)c2csc(C(C)C)n2)CCO3)ccc1F` [Example 43, N-Ethyl-3-(2-fluoro-5-((4-(2-isopropylthiazole-4-carbonyl)-1-oxa-4,9-diazaspiro[5.5]undecan-9-yl)methyl)phenethoxy)-N-(2-(2-(4-hydroxy-2-oxo-2,3-dihydrobenzo[d]thiazol-7-yl)ethylamino)ethyl)propanamide ditrifluoroacetate], at Adrenergic β2, the EC50 was 398 nM and the “β2 Intrinsic Activity” value worked out at 0.9. In experiment [1], the 50% inhibitory concentration (IC50) was 1 nM.

As to `CCN(CCNCCc1ccc(O)c2[nH]c(=O)sc12)C(=O)CCOCCc1ccc(F)c(CN2CCC3(CC2)CN(C(=O)c2csc(C(C)C)n2)CCO3)c1` [Example 44, N-Ethyl-3-(4-fluoro-3-((4-(2-isopropylthiazole-4-carbonyl)-1-oxa-4,9-diazaspiro[5.5]undecan-9-yl)methyl)phenethoxy)-N-(2-(2-(4-hydroxy-2-oxo-2,3-dihydrobenzo[d]thiazol-7-yl)ethylamino)ethyl)propanamide], on Adrenergic β2, the EC50 was 501 nM and the “β2 Intrinsic Activity” value came to 1.1. In addition, in experiment [1], the half-inhibitory concentration (IC50) is 0.501 nM.

For `Cc1nc(C(=O)N2CCOC3(CCN(Cc4ccc(CCOCCC(=O)N(CCNCCc5ccc(O)c6c5OCC(=O)N6)C5CCCCC5)cc4)CC3)C2)cs1` [Example 45, N-Cyclohexyl-N-(2-(2-(5-hydroxy-3-oxo-3,4-dihydro-2H-benzo[b][1,4]oxazin-8-yl)ethylamino)ethyl)-3-(4-((4-(2-methylthiazole-4-carbonyl)-1-oxa-4,9-diazaspiro[5.5]undecan-9-yl)methyl)phenethoxy)propanamide ditrifluoroacetate], at Adrenergic β2, the EC50 is 39.8 nM and the “β2 Intrinsic Activity” value was determined as 0.9. In experiment [1], this molecule showed an IC50 of 6.31 nM.

Turning to `CCN(CCNCCc1ccc(O)c2[nH]c(=O)sc12)C(=O)CCOCCc1cc(CN2CCC3(CC2)CN(C(=O)c2csc(C)n2)CCO3)ccc1Cl` [Example 46, 3-(2-Chloro-5-((4-(2-methylthiazole-4-carbonyl)-4-oxa-4,9-diazaspiro[5.5]undecan-9-yl)methyl)phenethoxy)-N-ethyl-N-(2-(2-(4-hydroxy-2-oxo-2,3-dihydrobenzo[d]thiazol-7-yl)ethylamino)ethyl)propanamide ditrifluoroacetate], on Adrenergic β2, the EC50 was 398 nM and the “β2 Intrinsic Activity” value was determined as 0.9. In experiment [1], the IC50 was 0.316 nM.

In the case of `CC(C)c1nc(C(=O)N2CCOC3(CCN(Cc4cc(F)cc(CCOCCC(=O)N(CCNCCc5ccc(O)c6c5OCC(=O)N6)C5CCCCC5)c4)CC3)C2)cs1` [Example 47, N-Cyclohexyl-3-(3-fluoro-5-((4-(2-isopropylthiazole-4-carbonyl)-1-oxa-4,9-diazaspiro[5.5]undecan-9-yl)methyl)phenethoxy)-N-(2-(2-(5-hydroxy-3-oxo-3,4-dihydro-2H-benzo[b][1,4]oxazin-8-yl)ethylamino)ethyl)propanamide ditrifluoroacetate], on Adrenergic β2, the EC50 was 63.1 nM and the “β2 Intrinsic Activity” value came to 0.9. Also, in experiment [1], the half-maximal inhibitory concentration (IC50) is 0.398 nM.
